# Results as given in patent US20230085307A1, “PYRIDAZINONE COMPOUND AND HERBICIDE” (NISSAN CHEMICAL CORPORATION, priority 2019, published 2023).
# Experiments:
# chickweed = experiment: Test Example 4: herbicidal effect by soil treatment (Table 19, symbol P); format: in vivo, common chickweed (Stellaria media); details: amount of applied herbicide 320 g/ha
# Procedure, shortened: (§1)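 Step 1: sow seeds in sterilized diluvial soil, cover ~1.5 cm. Step 2: spray diluted emulsion onto soil surface at predetermined rate. Step 3: greenhouse, 25–30° C, three weeks. Step 4: grade effect on each plant by earlier criteria.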
# Japanese bulrush [1] = experiment: Test Example 1: herbicidal activity, application before weed generation under submerged conditions (Table 16, symbol B); format: in vivo, Japanese bulrush (Schoenoplectus juncoides); details: 320 g/ha applied herbicide
# Procedure, shortened: (§2)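 Emulsion formulation, water-diluted to set dose, was put onto the flooded surface (4 cm depth, alluvial soil) the same day weeds were sown and 2.5-leaf rice transplanted. After 3 weeks at 25-30 °C under glass, each species was rated 0 (≤5% kill) to 5 (≥90% kill).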
# southern crabgrass = experiment: Test Example 4: herbicidal effect by soil treatment (Table 19, symbol F); format: in vivo, southern crabgrass (Digitaria ciliaris); details: amount of applied herbicide 320 g/ha
# Procedure, shortened: as §1
# rice flat sedge = experiment: Test Example 3: herbicidal effect by foliage application, Wagner pot (Table 18, symbol E); format: in vivo, rice flat sedge (Cyperus iria); details: amount of applied herbicide 320 g/ha
# Procedure, shortened: (§3)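 Plants were sown in alluvial soil held under 0.1–0.5 cm standing water and grown 14 days in a greenhouse at 25–30 °C. An emulsifiable formulation, water-diluted to the set dose, was then sprayed onto the foliage, and effects were scored three weeks later using previously defined criteria.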
# Italian ryegrass = experiment: Test Example 4: herbicidal effect by soil treatment (Table 19, symbol K); format: in vivo, Italian ryegrass (Lolium multiflorum); details: amount of applied herbicide 320 g/ha
# Procedure, shortened: as §1
# barnyard grass [2] = experiment: Test Example 4: herbicidal effect by soil treatment (Table 19, symbol H); format: in vivo, barnyard grass (Echinochloa crus-galli); details: amount of applied herbicide 320 g/ha
# Procedure, shortened: as §1
# wild oat = experiment: Test Example 4: herbicidal effect by soil treatment (Table 19, symbol I); format: in vivo, wild oat (Avena fatua); details: amount of applied herbicide 320 g/ha
# Procedure, shortened: as §1
# oval-leafed pondweed [3] = experiment: Test Example 1: herbicidal activity, application before weed generation under submerged conditions (Table 16, symbol C); format: in vivo, oval-leafed pondweed (Monochoria vaginalis); details: 320 g/ha applied herbicide
# Procedure, shortened: as §2
# velvetleaf = experiment: Test Example 4: herbicidal effect by soil treatment (Table 19, symbol M); format: in vivo, velvetleaf (Abutilon theophrasti); details: amount of applied herbicide 320 g/ha
# Procedure, shortened: as §1
# green foxtail = experiment: Test Example 4: herbicidal effect by soil treatment (Table 19, symbol G); format: in vivo, green foxtail (Setaria viridis); details: amount of applied herbicide 320 g/ha
# Procedure, shortened: as §1
# Chinese sprangletop = experiment: Test Example 3: herbicidal effect by foliage application, Wagner pot (Table 18, symbol D); format: in vivo, chinese sprangletop (Leptochloa chinensis); details: amount of applied herbicide 320 g/ha
# Procedure, shortened: as §3
# windgrass = experiment: Test Example 4: herbicidal effect by soil treatment (Table 19, symbol L); format: in vivo, windgrass (Apera spica-venti); details: amount of applied herbicide 320 g/ha
# Procedure, shortened: as §1
# Japanese bulrush [4] = experiment: Test Example 2: herbicidal activity, application during weed generation under submerged conditions (Table 17, symbol B); format: in vivo, Japanese bulrush (Schoenoplectus juncoides); details: AAH 320 g/ha; application during weed generation, submerged conditions
# Procedure, shortened: (§4)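 3-wk visual-criteria score after one water-surface dose. Emulsion formulation, water-diluted to set rate; applied at 1–2 leaf stage; alluvial soil, 4 cm standing water; seeds co-sown; greenhouse 25–30° C.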
# oval-leafed pondweed [5] = experiment: Test Example 2: herbicidal activity, application during weed generation under submerged conditions (Table 17, symbol C); format: in vivo, oval-leafed pondweed (Monochoria vaginalis); details: AAH 320 g/ha; application during weed generation, submerged conditions
# Procedure, shortened: as §4
# barnyard grass [6] = experiment: Test Example 3: herbicidal effect by foliage application, Wagner pot (Table 18, symbol H); format: in vivo, barnyard grass (Echinochloa crus-galli); details: amount of applied herbicide 320 g/ha
# Procedure, shortened: as §3
# late watergrass [7] = experiment: Test Example 1: herbicidal activity, application before weed generation under submerged conditions (Table 16, symbol A); format: in vivo, late watergrass (Echinochloa oryzicola); details: 320 g/ha applied herbicide
# Procedure, shortened: as §2
# blackgrass = experiment: Test Example 4: herbicidal effect by soil treatment (Table 19, symbol J); format: in vivo, blackgrass (Alopecurus myosuroides); details: amount of applied herbicide 320 g/ha
# Procedure, shortened: as §1
# persian speedwell = experiment: Test Example 4: herbicidal effect by soil treatment (Table 19, symbol R); format: in vivo, Persian speedwell (Veronica persica); details: amount of applied herbicide 320 g/ha
# Procedure, shortened: as §1
# lambsquarters = experiment: Test Example 4: herbicidal effect by soil treatment (Table 19, symbol O); format: in vivo, lambsquarters (Chenopodium album); details: amount of applied herbicide 320 g/ha
# Procedure, shortened: as §1
# late watergrass [8] = experiment: Test Example 2: herbicidal activity, application during weed generation under submerged conditions (Table 17, symbol A); format: in vivo, late watergrass (Echinochloa oryzicola); details: AAH 320 g/ha; application during weed generation, submerged conditions
# Procedure, shortened: as §4
# redroot pigweed = experiment: Test Example 4: herbicidal effect by soil treatment (Table 19, symbol N); format: in vivo, redroot pigweed (Amaranthus retroflexus); details: amount of applied herbicide 320 g/ha
# Procedure, shortened: as §1
Structure (SMILES),herbicidal effect on P: chickweed (chickweed),Herbicidal effect on B: Japanese bulrush (grade 0-5) (Japanese bulrush [1]),herbicidal effect on F: southern crabgrass (southern crabgrass),herbicidal effect on E: rice flat sedge (rice flat sedge),herbicidal effect on K: Italian ryegrass (Italian ryegrass),herbicidal effect on H: barnyard grass (barnyard grass [2]),herbicidal effect on I: wild oat (wild oat),Herbicidal effect on C: oval-leafed pondweed (grade 0-5) (oval-leafed pondweed [3]),herbicidal effect on M: velvetleaf (velvetleaf),herbicidal effect on G: green foxtail (green foxtail),herbicidal effect on D: Chinese sprangletop (Chinese sprangletop),herbicidal effect on L: windgrass (windgrass),"herbicidal effect rating, B: Japanese bulrush (Japanese bulrush [4])","herbicidal effect rating, C: oval-leafed pondweed (oval-leafed pondweed [5])",herbicidal effect on H: barnyard grass (barnyard grass [6]),Herbicidal effect on A: late watergrass (grade 0-5) (late watergrass [7]),herbicidal effect on J: blackgrass (blackgrass),herbicidal effect on R: persian speedwell (persian speedwell),herbicidal effect on O: lambsquarters (lambsquarters),"herbicidal effect rating, A: late watergrass (late watergrass [8])",other results
CCCC(=O)Oc1c(C)nn(C)c(=O)c1-c1c(-c2ccc(Cl)cc2F)sc2ccc(F)cc12 [2-349],3 (Herbicidal rate of 40% or more and less than 70%),0 (Herbicidal rate of 5% or less (almost no effect)),0 (Herbicidal rate of 5% or less (almost no effect)),4 (Herbicidal rate of 70% or more and less than 90%),4 (Herbicidal rate of 70% or more and less than 90%),0 (Herbicidal rate of 5% or less (almost no effect)),0 (Herbicidal rate of 5% or less (almost no effect)),0 (Herbicidal rate of 5% or less (almost no effect)),0 (Herbicidal rate of 5% or less (almost no effect)),0 (Herbicidal rate of 5% or less (almost no effect)),5 (Herbicidal rate of 90% or more (almost completely withered)),0 (Herbicidal rate of 5% or less (almost no effect)),3 (Herbicidal rate of 40% or more and less than 70%),3 (Herbicidal rate of 40% or more and less than 70%),5 (Herbicidal rate of 90% or more (almost completely withered)),3 (Herbicidal rate of 40% or more and less than 70%),0 (Herbicidal rate of 5% or less (almost no effect)),4 (Herbicidal rate of 70% or more and less than 90%),0 (Herbicidal rate of 5% or less (almost no effect)),3 (Herbicidal rate of 40% or more and less than 70%),herbicidal effect on N: redroot pigweed (redroot pigweed): 0 (Herbicidal rate of 5% or less (almost no effect))
Cc1nn(C)c(=O)c(-c2c(-c3ccc(Cl)c(F)c3)sc3ccc(F)cc23)c1O [2-350],3 (Herbicidal rate of 40% or more and less than 70%),0 (Herbicidal rate of 5% or less (almost no effect)),4 (Herbicidal rate of 70% or more and less than 90%),5 (Herbicidal rate of 90% or more (almost completely withered)),4 (Herbicidal rate of 70% or more and less than 90%),5 (Herbicidal rate of 90% or more (almost completely withered)),0 (Herbicidal rate of 5% or less (almost no effect)),0 (Herbicidal rate of 5% or less (almost no effect)),3 (Herbicidal rate of 40% or more and less than 70%),5 (Herbicidal rate of 90% or more (almost completely withered)),5 (Herbicidal rate of 90% or more (almost completely withered)),4 (Herbicidal rate of 70% or more and less than 90%),2 (Herbicidal rate of 20% or more and less than 40%),0 (Herbicidal rate of 5% or less (almost no effect)),5 (Herbicidal rate of 90% or more (almost completely withered)),3 (Herbicidal rate of 40% or more and less than 70%),0 (Herbicidal rate of 5% or less (almost no effect)),5 (Herbicidal rate of 90% or more (almost completely withered)),4 (Herbicidal rate of 70% or more and less than 90%),0 (Herbicidal rate of 5% or less (almost no effect)),herbicidal effect on N: redroot pigweed (redroot pigweed): 5 (Herbicidal rate of 90% or more (almost completely withered))
CCCC(=O)Oc1c(C)nn(C)c(=O)c1-c1c(-c2ccc(Cl)c(F)c2)sc2ccc(F)cc12 [2-351],1 (Herbicidal rate of 5% or more and less than 20%),3 (Herbicidal rate of 40% or more and less than 70%),0 (Herbicidal rate of 5% or less (almost no effect)),4 (Herbicidal rate of 70% or more and less than 90%),0 (Herbicidal rate of 5% or less (almost no effect)),0 (Herbicidal rate of 5% or less (almost no effect)),0 (Herbicidal rate of 5% or less (almost no effect)),3 (Herbicidal rate of 40% or more and less than 70%),0 (Herbicidal rate of 5% or less (almost no effect)),0 (Herbicidal rate of 5% or less (almost no effect)),5 (Herbicidal rate of 90% or more (almost completely withered)),0 (Herbicidal rate of 5% or less (almost no effect)),3 (Herbicidal rate of 40% or more and less than 70%),4 (Herbicidal rate of 70% or more and less than 90%),5 (Herbicidal rate of 90% or more (almost completely withered)),5 (Herbicidal rate of 90% or more (almost completely withered)),0 (Herbicidal rate of 5% or less (almost no effect)),3 (Herbicidal rate of 40% or more and less than 70%),3 (Herbicidal rate of 40% or more and less than 70%),3 (Herbicidal rate of 40% or more and less than 70%),herbicidal effect on N: redroot pigweed (redroot pigweed): 3 (Herbicidal rate of 40% or more and less than 70%)
